Patent publication US12070470B2, “Topoisomerase inhibitor for mimicking the effect of ionizing radiations on T cells” (Novagray, priority 2018, dated 2024)

Test system: CD8 T-lymphocyte
Experiment: Etoposide-induced CD8 T-lymphocyte apoptosis procedure (flow cytometry, compared with 8 Gy RILA)
Assay type: cell-based, human
Settings: for Corresponding etoposide concentration: x̃i^co: concentration corresponding to 8 Gy RILA, applied at the start of cell culture, whole blood
Protocol: Blood samples were purchased from Etablissement Français du Sang (EFS) with the convention number 21PLER2016-0100 AV01. Blood samples were collected from healthy donors in 5 mL heparinized tubes without separation gel.
Blood cells were grown in RPMI-1640 with glutamax (Fisher scientific, France) supplemented with 20% fetal calf serum (FCS) (EuroBio, France). Cells were maintained at 37° C. with 5% CO2 during the experiments.
Etoposide (EuroMedex) was solubilized in sterile dimethyl-sulfoxide (DMSO) at 75 mg/mL according to manufacturer instructions and stored at −80° C.
Before radiotherapy (RT), one blood sample was collected from each patient in a 5-mL heparinized tube. Twenty or twenty-four hours after blood collection, 200 μl of blood were aliquoted into a 6-well plate containing 2 mL of RPMI-20% FCS. All tests were carried out in triplicate for both 0 and 8 Gy. Ex-vivo irradiations were delivered after 24 hours of blood cell culture using the Xenx irradiator platform (XStrahl, UK). Then, the plates were immediately incubated for 48 hours at 37° C. (5% C02).
Samples were then centrifuged for 5 min at 300 g. The pellets were resuspended in phosphate-buffered saline (PBS) containing 10 μl of anti-human CD8-FITC antibody (Becton Dickinson, USA) and incubated for 20 minutes at room temperature. Then, red blood cells were lysed by addition of 4 ml of lysis buffer diluted 1:10 in water (Becton Dickinson, USA). After another 20 minutes incubation time at room temperature, samples were centrifuged for 5 min at 300 g and the pellets were washed with 3 ml of PBS. Pellets were suspended in 200 μl of PBS containing 25 μg/ml of propidium iodide (Sigma, France) and 5 μl of RNAse A at 10 mg/ml (Qiagen, France). The samples were analyzed by flow cytometry within the next hours, using the CytoFlex (Beckman Coulter, USA).
Different irradiation doses (0 Gy, 6 Gy, 8 Gy and 10 Gy) and different Etoposide concentrations (40 μg/mL, 60 μg/mL, 70 μg/mL, 80 μg/mL, 100 μg/mL) were applied to aliquots of the same blood sample.
Irradiations and culture were performed as previously described. The staining was performed 48 hours after the irradiation using the same protocol as previously described.
For the Etoposide treatment, two hundred microliters of blood were aliquoted into a 6-well plate containing 2 mL of RPMI-20% FCS-Etoposide 24 hours after blood cell collection. The cell culture media containing the different concentrations of etoposide were made fresh just before starting the cell culture. After etoposide incubation with blood cells for at least 50 hours (generally more than about 60 hours, in particular between 65 and 75 hours), samples were stained for flow cytometry analysis as described above.
Two mixed linear models with fixed intercept, fixed slope and random intercept were used to model the RILA rate evolution according to the compound or to the irradiation dose in Gray.

Structure (SMILES): COc1cc([C@@H]2c3cc4c(cc3[C@@H](O[C@@H]3O[C@@H]5CO[C@@H](C)O[C@H]5[C@H](O)[C@H]3O)[C@H]3COC(=O)[C@H]23)OCO4)cc(OC)c1O [etoposide]
- Corresponding etoposide concentration: x̃i^co (Donor 1): 66.2 µg/mL
- Corresponding etoposide concentration: x̃i^co (Donor 2): 70.1 µg/mL
- Corresponding etoposide concentration: x̃i^co (Donor 3): 67.1 µg/mL
- Corresponding etoposide concentration: x̃i^co (Donor 4): 106.1 µg/mL
- Corresponding etoposide concentration: x̃i^co (Donor 5): 87.1 µg/mL
- concentration at which the apoptosis rate obtained after irradiation is achieved (treatment applied at the start of blood cell culture): less than 150 μg/ml
